Where a name gives a salt, the structure may show the parent alone.
Legend:
Type in all cases: biochemical
[1] = molecular target: T1, recombinant human DAO (diamine oxidase) (Homo sapiens, UniProt P19801); test: Activity on recombinant human DAO, method similar to the VAP-1 assay; settings: substrate 1 mM putrescine; read-out: Inhibitory Activity (IC50, nM) DAO
T1 construct: purchased R&D systems
T1 sequence (P19801 20-751): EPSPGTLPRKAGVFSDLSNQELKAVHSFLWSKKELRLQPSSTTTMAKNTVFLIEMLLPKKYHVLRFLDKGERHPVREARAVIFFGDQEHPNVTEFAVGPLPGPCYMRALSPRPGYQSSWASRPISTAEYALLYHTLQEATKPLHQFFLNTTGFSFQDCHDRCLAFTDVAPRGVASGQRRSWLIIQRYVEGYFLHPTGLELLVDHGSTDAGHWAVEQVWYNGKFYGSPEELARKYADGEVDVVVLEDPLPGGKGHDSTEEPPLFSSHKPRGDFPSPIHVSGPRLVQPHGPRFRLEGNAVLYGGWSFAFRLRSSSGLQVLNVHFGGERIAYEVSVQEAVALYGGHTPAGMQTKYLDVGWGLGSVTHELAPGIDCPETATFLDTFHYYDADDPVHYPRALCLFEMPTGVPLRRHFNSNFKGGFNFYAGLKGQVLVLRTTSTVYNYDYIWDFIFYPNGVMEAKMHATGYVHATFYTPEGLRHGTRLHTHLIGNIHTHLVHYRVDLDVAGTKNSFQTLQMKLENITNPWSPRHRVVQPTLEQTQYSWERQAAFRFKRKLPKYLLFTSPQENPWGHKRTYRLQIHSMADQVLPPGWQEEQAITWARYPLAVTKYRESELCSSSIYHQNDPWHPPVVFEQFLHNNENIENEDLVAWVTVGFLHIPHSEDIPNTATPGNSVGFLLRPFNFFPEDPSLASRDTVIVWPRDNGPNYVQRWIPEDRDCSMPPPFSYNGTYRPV
Method: (§1) The compounds according to the present technology were evaluated in terms of activity on recombinant human VAP-1 (R&D systems) by measuring the level of hydrogen peroxide in horseradish peroxidase (HRP)-coupled reaction using Amplex Red Hydrogen Peroxide Assay Kit (Molecular Probes, Invitrogen, USA). The experiment was carried out at room temperature using benzylamine as a substrate. In the HRP-coupled reaction, hydrogen peroxide oxidation of 10-acetyl-3,7-dihydroxyphenoxazine (Amplex Red reagent) produces resorufin, which is a highly fluorescent compound. Briefly, the test compound was dissolved in dimethyl sulfoxide (DMSO) at a concentration of 20 mM. The dose-response assessment was made by 1:3 serial dilution in DMSO, thereby creating an 8 point curve. The concentration of the upper part was controlled according to the efficacy of the compounds, followed by dilution with a reaction buffer solution to obtain a final DMSO concentration less than 1%. To each well of a 96 black well plate, human VAP-1 purified in 50 mM sodium phosphate buffer solution (pH7.4) was added. The test compounds dissolved in DMSO were incubated with the human VAP-1 enzymes at 37° C. for 30 minutes. After 30-minute incubation, each well is added with a reaction mixture containing 200 uM Amplex Red reagent prepared from 50 mM sodium phosphate buffer solution (pH 7.4), 1 mM benzylamine, and 1 U/mL HRP. Fluorescence intensity was measured at several time points during 1-2 hours using a microplate reader (Flexstation3, Molecular Devices) under the wavelength condition exciting at 544 nm and reading the emission at 590 nm. The inhibitory effect of the compounds was measured as a decrease (%) in the signal rate as compared to the control group without any inhibitor (only diluted DMSO). Data was fixed to a logistic model with four variables and IC50 value was calculated using GraphPad Prism program.
(§2) In addition, the compounds according to the present technology were evaluated in terms of activity on a recombinant human MAO-A (monoamine oxidase-A, Sigma-Aldrich) and a recombinant human MAO-B (monoamine oxidase-B, Sigma-Aldrich) by using as substrates, 0.5 mM tyramine and 1 mM benzylamine, respectively, with a method similar to the activity evaluation method for recombinant human VAP-1. The compounds according to the present technology were also evaluated in terms of activity on a recombinant human DAO (diamine oxidase, R&D systems) by using as a substrate 1 mM putrescine with a method similar to the activity evaluation method for recombinant human VAP-1.

[2] = molecular target: T2, recombinant human VAP-1 (Homo sapiens, UniProt Q16853); test: Activity on recombinant human VAP-1, HRP-coupled Amplex Red hydrogen peroxide assay; settings: substrate 1 mM benzylamine; compound incubated with enzyme at 37° C. for 30 minutes; pH 7.4; read-out: Inhibitory Activity (IC50, nM) human VAP-1
T2 construct: purchased R&D systems
T2 sequence (Q16853 1-763): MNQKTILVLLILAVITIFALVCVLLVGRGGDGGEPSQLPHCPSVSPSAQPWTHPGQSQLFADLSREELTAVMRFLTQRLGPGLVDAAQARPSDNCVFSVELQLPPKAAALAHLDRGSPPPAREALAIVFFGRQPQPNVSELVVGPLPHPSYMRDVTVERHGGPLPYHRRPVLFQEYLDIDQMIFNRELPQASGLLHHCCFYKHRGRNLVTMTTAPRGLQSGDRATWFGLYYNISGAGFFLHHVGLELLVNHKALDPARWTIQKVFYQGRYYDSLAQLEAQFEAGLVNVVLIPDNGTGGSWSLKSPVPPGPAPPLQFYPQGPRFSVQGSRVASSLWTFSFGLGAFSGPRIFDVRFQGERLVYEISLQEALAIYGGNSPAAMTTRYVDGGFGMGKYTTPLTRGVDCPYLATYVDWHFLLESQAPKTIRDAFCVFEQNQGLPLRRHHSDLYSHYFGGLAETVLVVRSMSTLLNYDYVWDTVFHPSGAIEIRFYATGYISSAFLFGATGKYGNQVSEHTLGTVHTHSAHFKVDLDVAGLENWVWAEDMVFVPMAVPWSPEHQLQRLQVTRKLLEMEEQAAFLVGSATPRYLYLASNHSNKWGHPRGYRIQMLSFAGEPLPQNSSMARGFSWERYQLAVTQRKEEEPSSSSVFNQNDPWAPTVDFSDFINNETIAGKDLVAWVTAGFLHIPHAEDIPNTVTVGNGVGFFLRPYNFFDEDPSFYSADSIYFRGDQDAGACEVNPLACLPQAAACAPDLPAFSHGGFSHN
Method: as §1

[3] = molecular target: T3, recombinant human MAO-B (monoamine oxidase-B) (Homo sapiens, UniProt P27338); test: Activity on recombinant human MAO-B, method similar to the VAP-1 assay; settings: substrate 1 mM benzylamine; read-out: Inhibitory Activity (IC50, nM) MAO-B
T3 construct: purchased Sigma-Aldrich
T3 sequence (P27338 1-520): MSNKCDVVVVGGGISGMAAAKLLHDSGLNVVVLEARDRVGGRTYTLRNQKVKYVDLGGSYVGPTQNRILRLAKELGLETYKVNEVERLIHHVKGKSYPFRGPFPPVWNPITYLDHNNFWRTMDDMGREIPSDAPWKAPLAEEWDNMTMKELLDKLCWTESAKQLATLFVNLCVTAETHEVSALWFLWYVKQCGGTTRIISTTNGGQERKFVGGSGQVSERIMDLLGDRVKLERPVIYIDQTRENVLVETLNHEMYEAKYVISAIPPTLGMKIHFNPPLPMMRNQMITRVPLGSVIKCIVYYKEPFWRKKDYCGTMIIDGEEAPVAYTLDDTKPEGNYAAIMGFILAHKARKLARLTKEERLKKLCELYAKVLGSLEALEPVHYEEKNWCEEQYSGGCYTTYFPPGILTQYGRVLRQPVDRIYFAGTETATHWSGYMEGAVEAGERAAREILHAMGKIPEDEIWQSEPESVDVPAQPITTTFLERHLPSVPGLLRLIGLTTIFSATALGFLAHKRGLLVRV
Method: as §1, §2

[4] = molecular target: T4, recombinant human MAO-A (monoamine oxidase-A) (Homo sapiens, UniProt P21397); test: Activity on recombinant human MAO-A, method similar to the VAP-1 assay; settings: substrate 0.5 mM tyramine; read-out: Inhibitory Activity (IC50, nM) MAO-A
T4 construct: purchased Sigma-Aldrich
T4 sequence (P21397 1-527): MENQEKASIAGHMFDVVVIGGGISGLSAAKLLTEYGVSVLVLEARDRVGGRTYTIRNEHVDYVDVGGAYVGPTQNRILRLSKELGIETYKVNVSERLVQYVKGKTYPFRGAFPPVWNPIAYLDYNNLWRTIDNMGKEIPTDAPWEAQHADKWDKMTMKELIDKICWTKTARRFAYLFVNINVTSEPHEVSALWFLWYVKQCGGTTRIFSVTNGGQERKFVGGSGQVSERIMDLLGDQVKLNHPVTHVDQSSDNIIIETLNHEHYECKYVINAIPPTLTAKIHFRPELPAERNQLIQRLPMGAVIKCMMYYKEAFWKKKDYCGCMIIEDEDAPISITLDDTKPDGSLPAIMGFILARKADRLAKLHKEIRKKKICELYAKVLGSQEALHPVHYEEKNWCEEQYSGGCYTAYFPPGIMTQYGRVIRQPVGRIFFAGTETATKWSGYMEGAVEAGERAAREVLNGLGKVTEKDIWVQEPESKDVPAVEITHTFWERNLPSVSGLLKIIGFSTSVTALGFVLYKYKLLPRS
Method: as §1, §2

NC/C(=C/F)Cn1ncn(Cc2ccc(Br)s2)c1=O [Example 1, 2-[(2Z)-2-(aminomethyl)-3-fluoroprop-2-en-1-yl]-4-[(5-bromothiophen-2-yl)methyl]-2,4-dihydro-3H-1,2,4-triazol-3-one]
IC50 [1]: 3020 nM | IC50 [2]: 5.7 nM | IC50 [3]: 14 nM | IC50 [4]: 18000 nM

NC/C(=C\F)Cn1ncn(Cc2ccc(Br)s2)c1=O [Example 2, 2-[(2E)-2-(aminomethyl)-3-fluoroprop-2-en-1-yl]-4-[(5-bromothiophen-2-yl)methyl]-2,4-dihydro-3H-1,2,4-triazol-3-one hydrochloride]
IC50 [1]: 3300 nM | IC50 [2]: 5.2 nM | IC50 [3]: 14 nM | IC50 [4]: > 100000 nM

NC/C(=C/F)Cn1ncn(Cc2ccc(-c3ccc(N)cc3)s2)c1=O [Example 3, 2-[(2Z)-2-(aminomethyl)-3-fluoroprop-2-en-1-yl]-4-[5-(4-aminophenyl)thiophen-2-yl]methyl-2,4-dihydro-3H-1,2,4-triazol-3-one hydrochloride]
IC50 [1]: 860 nM | IC50 [2]: 4.7 nM | IC50 [3]: 21 nM | IC50 [4]: 72000 nM

CN(C)c1cccc(-c2ccc(Cn3cnn(C/C(=C/F)CN)c3=O)s2)c1 [Example 4, 2-[(2E)-2-(aminomethyl)-3-fluoroprop-2-en-1-yl]-4-(5-[3-(dimethylamino)phenyl]thiophen-2-ylmethyl)-2,4-dihydro-3H-1,2,4-triazol-3-one hydrochloride]
IC50 [1]: 9500 nM | IC50 [2]: 4.6 nM | IC50 [3]: 50 nM | IC50 [4]: 35000 nM

CN(C)c1ccc(-c2ccc(Cn3cnn(C/C(=C/F)CN)c3=O)s2)cc1 [Example 5, 2-[(2E)-2-(aminomethyl)-3-fluoroprop-2-en-1-yl]-4-(5-[4-(dimethylamino)phenyl]thiophen-2-ylmethyl)-2,4-dihydro-3H-1,2,4-triazol-3-one hydrochloride]
IC50 [2]: 3.3 nM | IC50 [3]: 680 nM | IC50 [4]: > 100000 nM

CN(C)c1cc(-c2ccc(Cn3cnn(C/C(=C/F)CN)c3=O)s2)ccc1F [Example 6, 2-[(2E)-2-(aminomethyl)-3-fluoroprop-2-en-1-yl]-4-(5-[3-(dimethylamino)-4-fluorophenyl]thiophen-2-ylmethyl)-2,4-dihydro-3H-1,2,4-triazol-3-one hydrochloride]
IC50 [1]: 2900 nM | IC50 [2]: 3.4 nM | IC50 [3]: 70 nM | IC50 [4]: > 100000 nM

CS(=O)(=O)Nc1ccc(-c2ccc(Cn3cnn(C/C(=C/F)CN)c3=O)s2)cc1 [Example 7, N-4-[5-(1-[(2E)-2-(aminomethyl)-3-fluoroprop-2-en-1-yl]-5-oxo-1,5-dihydro-4H-1,2,4-triazol-4-ylmethyl)thiophen-2-yl]phenylmethansulfonamide hydrochloride]
IC50 [1]: 1000 nM | IC50 [2]: 0.4 nM | IC50 [3]: 11000 nM | IC50 [4]: 35000 nM

CNS(=O)(=O)c1cccc(-c2ccc(Cn3cnn(C/C(=C/F)CN)c3=O)s2)c1 [Example 8, 3-[5-(1-[(2E)-2-(aminomethyl)-3-fluoroprop-2-en-1-yl]-5-oxo-1,5-dihydro-4H-1,2,4-triazol-4-ylmethyl)thiophen-2-yl]-N-methylbenzenesulfonamide hydrochloride]
IC50 [1]: 520 nM | IC50 [2]: 1.2 nM | IC50 [3]: 210 nM | IC50 [4]: > 100000 nM

CC(C)(C)NS(=O)(=O)c1cncc(-c2ccc(Cn3cnn(C/C(=C/F)CN)c3=O)s2)c1 [Example 186, 5-[5-({1-[(2E)-2-(aminomethyl)-3-fluoroprop-2-en-1-yl]-5-oxo-1,5-dihydro-4H-1,2,4-triazol-4-yl}methyl)thiophen-2-yl]-N-tert-butylpyridin-3-sulfonamide]
IC50 [1]: 140 nM | IC50 [2]: 2.4 nM | IC50 [3]: 20000 nM

NC/C(=C\F)Cn1ncn(Cc2ccc(-c3ccc(S(=O)(=O)N4CCOCC4)cc3)s2)c1=O [Example 198, 2-[(2E)-2-(aminomethyl)-3-fluoroprop-2-en-1-yl]-4-({5-[4-(morpholin-4-ylsulfonyl)phenyl]thiophen-2-yl}methyl)-2,4-dihydro-3H-1,2,4-triazol-3-one]
IC50 [1]: 220 nM | IC50 [2]: 2.2 nM | IC50 [3]: 6200 nM

From patent US11780830B2, “Triazolone derivatives or salts thereof and pharmaceutical compositions comprising the same” (YUHAN CORPORATION, priority 2018, dated 2023)
